Data: patent publication US20040122209A1, “Products for regulating the degradation of collagen and methods for identifying same” (Shriners Hospital For Children, priority 2002, published 2004)
“Also recorded” adds a separate entry of the source.

Key:
Format in all cases: cell-based
[1] = tested on: bovine articular cartilage explant; test: Collagenase-cleaved type II collagen (COL2-3/4C) in bovine articular cartilage explant culture; conditions: 1 and 10 μM, time- and dose-dependent
Protocol: (§1) The cartilages were prepared as previously described (Dahlberg, L. et al. (2000) supra. In brief, the cartilage samples were washed three times with basal culture medium containing Dulbecco's modified Eagle's medium (DMEM; Gibco BRL, Life Technologies, Grand Island, N.Y.) with 20 mM HEAPS buffer (pH 7.4) (Gibco BRL), 45 mM NaHCO3, 100 units/ml penicillin, 100 μg/ml streptomycin and 150 μg/ml gentamycin sulphate (Medium A). Full-depth cartilage slices from a single area, around 20 mm×20 mm were cut vertical to the articular surface and then into cubes of approximately 2 mm×2 mm (5-7 cubes were randomly obtained and wet weights about 50-70 mg/well determined).
(§2) The cartilage was assigned to 48 well plate (ca 40 mg/well) and kept in Medium A supplemented with 50 μg/ml ascorbic acid, 0.1 mg/bovine serum albumin, 50 μg/ml insulin, 5.0 μg/ml and 5.0 μg/ml sodium DMEM alone at 37° C. in 95% air/5% CO2. The cartilage was precultured for 2 days and medium was changed at day 0. Thereafter medium (as described in pellet cultures) was replaced every four days. Various CNBr fragments and/or synthetic peptides were freshly added from day 0 at each medium change. Thereafter, cartilage explants and conditioned media were harvested and stored at −20° C.
(§3) The cell pellets and cartilage explant cultured for various times were digested for the extraction of collagenase-generated neoepitope COL2-3/4Cshort (Billinghurst, R. C. et al., (1997) supra) and denatured type II collagen epitope COL2-3/4m and total type II collagen (Hollander, A. P. et al. (1994a) supra), as previously described: Briefly, the harvested pellets were incubated overnight with 1.0 mg/ml α-chymotrypsin at 37° C. to cleave and solubilize denatured collagen leaving the above neoepitope and epitope intact. After inhibition of α-chymotrypsin activity with N-tosyl-L-phenelalanine-chloromethyl ketone (Sigma), the samples were centrifuged and the supernatants were removed and boiled for 10 min. The COL2-3/4Cshort epitope (hereafter referred to as COL2-3/4Cshort) generated by cleavage of type II collagen by collagenase (Billinghurst, R. C. et al. (1997) supra) and intrachain epitope (COL2-3/4m) exposed in denatured type II collagen (Hollander, A. P. et al. (1994a) supra) were measured in α-chymotrypsin extracts by immunoassay. The COL2-3/4Cshort epitope is detected in an ELISA assay using a rabbit antibody to the carboxyterminal cleavage neoepitope on the TCA piece generated by primary collagenase cleavage of type II collagen. The release of the COL2-3/4C epitope into media was also measured by immunoassay. Total contents in tissue/cells and media was recorded for COL2-3/^4Cshort epitope. The COL2-3/4m epitope was recorded in cells and tissue where it was concentrated. The remaining residues of pellets and explants were digested overnight with 1.0 mg/ml proteinase K at 56° C. to extract the remaining intact type II collagen and then boiled for 10 min to denature the enzyme. Total type II collagen content in the pellets and explant was determined from the collective amount of COL2-3/4m in both the α-chymotrypsin and proteinase K digests.

[2] = tested on: bovine articular cartilage explant; test: Proteoglycan (GAG) content and release in bovine explant culture; conditions: subpeptides at 1 and 10 μM
Protocol: The cartilages were prepared as previously described (Dahlberg, L. et al. (2000) supra. In brief, the cartilage samples were washed three times with basal culture medium containing Dulbecco's modified Eagle's medium (DMEM; Gibco BRL, Life Technologies, Grand Island, N.Y.) with 20 mM HEAPS buffer (pH 7.4) (Gibco BRL), 45 mM NaHCO3, 100 units/ml penicillin, 100 μg/ml streptomycin and 150 μg/ml gentamycin sulphate (Medium A). Full-depth cartilage slices from a single area, around 20 mm×20 mm were cut vertical to the articular surface and then into cubes of approximately 2 mm×2 mm (5-7 cubes were randomly obtained and wet weights about 50-70 mg/well determined). The cartilage was assigned to 48 well plate (ca 40 mg/well) and kept in Medium A supplemented with 50 μg/ml ascorbic acid, 0.1 mg/bovine serum albumin, 50 μg/ml insulin, 5.0 μg/ml and 5.0 μg/ml sodium DMEM alone at 37° C. in 95% air/5% CO2. The cartilage was precultured for 2 days and medium was changed at day 0. Thereafter medium (as described in pellet cultures) was replaced every four days. Various CNBr fragments and/or synthetic peptides were freshly added from day 0 at each medium change. Thereafter, cartilage explants and conditioned media were harvested and stored at −20° C. In order to show the specificity of the peptide fragments of one embodiment on degradation of type II collagen as compared with proteoglycan, primarily aggrecan, sulphated glycosaminoglycan (GAG) content was determined in both the α-chymotrypsin and proteinase K digests for total proteoglycan (predominantly aggrecan) content in cell pellets, cartilage explants and also in conditioned media. Measurement of release of proteoglycan into media was tested using dimethylene blue dye binding as previously described (Dahlberg, L. et al. (2000) supra).

[3] = tested on: normal human adult articular cartilage explants; test: Type II collagen cleavage by collagenase (COL2-3/4C) in human articular cartilage explant culture
Protocol: Human femoral chondylar cartilages were obtained at autopsy within 18 hours of death from adult persons with no known history of arthritis and no macroscopic signs of articular degeneration. None of the persons had diabetes or had received chemotherapy prior to autopsy. Adult bovine articular cartilage was obtained from adults/bovine steers and cows from metacarpalphalangeal joints obtained at the abbatoir immediately after slaughter. All cartilage specimens were removed immediately to the laboratory under sterile conditions.
as §1, §2, §3

[4] = tested on: isolated human chondrocytes; test: Cell attachment assay (total cellular hexosaminidase); conditions: preliminary studies
Protocol: Ninety six-well, non-tissue culture plates were coated with a peptide fragment of the invention (CB12-II), a negative control peptide (USP), or human fibronectin in PBS at various concentrations overnight at room temperature in the laminar flow hood. […] Optimal binding was obtained with concentration of 10 μg/ml for CB12-II. After the plates were washed once with PBS, additional protein binding sites in the plate wells were blocked with 5% heat-denatured BSA in PBS at 37° […] for 1 hour. Freshly isolated human chondrocytes were recovered for 2 hours as described above, and then added to on substrate-coated plates at the density of 1×10^7 cells/ml (0.5-2×10^6 cells/well) and incubated at 37° C. for 1 hour. The chondrocyte suspensions were preincubated with 5 μg/ml anti-integrin blocking antibodies (from Chemicon): al (clone CB12), a2 (clone P1E6), a5, (clone DID6), α1 (clone 6S6), α2 (cloneP4H9), α3 (clone 25EW), α2β1 (clone BHA2.1), and α5β1 (clone JBS5) at 4° C. for 30 min prior to adding cells to the pre-coated wells for 1 hour at 37° C. Unattached cells were removed and the wells were washed gently twice with PBS. Bound cells were then quantitated by measuring total cellular hexosaminidase as described (36, 37). […] After a 6-h incubation, 90 μl of 50 mM glycine, 5 mM EDTA, pH 10.4 was added, and the absorbance was read at 405 nm.

## ERGPPGPQGARGFPGTPGLPGVK [CB12-II]
[1]
  induction of total collagenase cleavage of type II collagen by CB12 subpeptides: most pronounced
[2]
  proteoglycan breakdown: no significant effect
[3]; 1 μM (one donor), 5 μM and 10 μM (both donors), over 16 days
  induction of cleavage of type II collagen, dose dependence: dose dependent manner; also recorded: Activity was seen
[3]; 10 μM, day 12
  COL2-3/4 epitope production in cartilage and medium: significant progressive increase
[3]; hydroxylation study, day 16
  type II collagen cleavage by collagenase in presence of peptide: clearly enhanced
[4]
  coating concentration giving optimal binding of chondrocytes: 10 µg/mL
